In patent US8383607B2, “Perifosine and capecitabine as a combined treatment for cancer” (AEterna Zentaris GmbH, priority 2011, dated 2013):
Where two headings read alike, the source gives them in different places.

What was measured:
[1] = test system: breast cancer, non-small cell lung cancer, colorectal cancer, prostate cancer, ovarian cancer, head and neck cancer or soft tissue sarcoma; assay: Phase II portion: perifosine or placebo with single-agent chemotherapy regimens; type: in vivo, human; conditions: 50 mg perifosine or placebo daily with single-agent chemotherapy
Procedure: The prior regimen must have been different than the single agent administered in this study. Each patient received a single agent chemotherapy regimen which was judged by a physician as likely to be as beneficial to the patient as any other available therapy. […] The single-agent chemotherapy regimens were as follows: Paclitaxel: 175 mg/m^2 every 3 weeks or 80 mg/m^2 on days 1, 8 and 15 every 4 weeks, by intravenous infusion over 1 to 3 hours (used to treat breast, prostate and lung cancers); Docetaxel: 75 mg/m^2 every 3 weeks or 35 mg/m^2 on days 1, 8 and 15 every 4 weeks, by intravenous infusion over 1 hour (used to treat head and neck, lung, ovarian and prostate cancers); Gemcitabine: 1000 mg/m^2 on days 1 and 8 every 3 weeks, by infusion over 30 minutes (used to treat sarcoma and lung, ovarian, breast and head and neck cancers); Doxorubicin: 60 mg/m^2 every 3 weeks, by infusion over 30 minutes (used to treat sarcoma and prostate, ovarian, and breast cancers); Pegylated liposomal doxorubicin: 40 mg/m^2 every 4 weeks, by infusion over 30 minutes (used to treat sarcoma and ovarian and breast cancers); Capecitabine: 825 mg/m^2 twice per day (i.e., 1650 mg/m^2 per day) on days 1-14 every 3 weeks, administered orally (used to treat breast, colorectal, head and neck, prostate, and ovarian cancers); Pemetrexed: 500 mg/m^2 every 3 weeks, by intravenous infusion over 10 minutes (used to treat lung and colorectal cancers); and Irinotecan: 100 mg/m^2 on days 1, 8 and 15 every 4 weeks, by intravenous infusion over 90 minutes (used to treat sarcoma and colorectal and lung cancers). The time to progression (TTP) was a primary endpoint for the various treatment groups. Overall survival (OS) rates and overall response rates (ORR) of the patients and the proportion of progression-free patients were secondary endpoints. In addition, the safety of the combined treatments was also evaluated. […] The Kaplan-Meier method was used to calculate times to progression and overall survival. Median values of the TTP and OS were calculated, as well as the confidence intervals (CI) of the TTP and OS at a 95% confidence level. P-values were calculated for the differences between different treatments.

[2] = test system: refractory advanced colorectal cancer; assay: Phase I clinical study: safety of 50 mg perifosine daily with 1000 mg/m^2 capecitabine twice per day; conditions: first dose perifosine vs perifosine for eleven days
Procedure: A Phase I clinical study was performed for evaluating the safety of 50 mg perifosine daily in combination with 1000 mg/m^2 capecitabine twice per day in patients with refractory advanced colorectal cancer. During a 21 day cycle, perifosine was administered every day, whereas capecitabine was administered orally on days 1-14 of the cycle.
The study was performed on patients having 3rd line or higher metastatic colorectal cancer, with no prior exposure to perifosine, and who had received, or were not candidates for, regimens containing 5-fluorouracil, oxaliplatin, irinotecan, bevacizumab, and cetuximab or panitumumab. The patients had at least one measurable lesion, as well as adequate bone marrow, liver and renal function.
Toxicity was graded according to the NCI CTCAE version 3.0, and dose limiting toxicity was defined as any of the following: […]
a) Grade 3 non-hematological toxicity except alopecia, which is not reversible Grade 2 or less within 96 hours; or
Physical examination (including vital signs, weight and ECOG performance score) was performed prior to initiation of the treatment, and on day 1 (±3 days) of every cycle thereafter. Adverse event evaluations were monitored and reported promptly.

[3] = test system: metastatic colorectal cancer; assay: Phase II randomized placebo-controlled expanded study: perifosine with capecitabine vs capecitabine alone; type: in vivo, human
Procedure: As outlined above, the randomized placebo-controlled study was performed in order to evaluate the effects of perifosine in combination with various cytotoxic agents (i.e., gemcitabine, paclitaxel, docetaxel, doxorubicin, capecitabine, pemetrexed, irinotecan and pegylated liposomal doxorubicin) and to determine if co-administering perifosine and each of these cytotoxic agents results in synergy, and if such synergy overcomes resistance to chemotherapy in cancer cells.
The study was performed on patients having breast cancer, non-small cell lung cancer, colorectal cancer, prostate cancer, ovarian cancer, head and neck cancer or soft tissue sarcoma, who had received at least one prior chemotherapy regimen. The prior regimen must have been different than the single agent administered in this study. Each patient received a single agent chemotherapy regimen which was judged by a physician as likely to be as beneficial to the patient as any other available therapy.
Patients received either 50 mg perifosine or placebo daily in combination with single-agent chemotherapy.
Capecitabine: 825 mg/m^2 twice per day (i.e., 1650 mg/m^2 per day) on days 1-14 every 3 weeks, administered orally (used to treat breast, colorectal, head and neck, prostate, and ovarian cancers);
The time to progression (TTP) was a primary endpoint for the various treatment groups. Overall survival (OS) rates and overall response rates (ORR) of the patients and the proportion of progression-free patients were secondary endpoints. In addition, the safety of the combined treatments was also evaluated.
Progression and response (complete response or partial response) were determined according to RECIST 1.0 criteria.
The Kaplan-Meier method was used to calculate times to progression and overall survival. Median values of the TTP and OS were calculated, as well as the confidence intervals (CI) of the TTP and OS at a 95% confidence level. P-values were calculated for the differences between different treatments.
Safety of treatments was assessed by monitoring adverse events, which were graded according to the NCI CTCAE version 3.0.

[4] = cited from earlier work; for time of peak blood level after administration: after capecitabine administration
[5] = test system: Advancing colorectal cancer (ACRC); Metastatic colorectal cancer (MCRC); conditions: cited from earlier work
[6] = 5-FU-refractory metastatic colorectal cancer patients, listed as capecitabine alone
[7] = 5-FU-refractory metastatic colorectal cancer patients, listed as placebo+capecitabine
[8] = after 12 weeks, 5-FU refractory evaluable patients (14 combination, 11 capecitabine alone)
[9] = after 12 weeks, evaluable metastatic colorectal cancer patients (20 combination, 15 capecitabine alone)
[10] = all metastatic colorectal cancer patients, 50 mg perifosine or placebo daily + capecitabine 1650 mg/m^2 per day days 1-14 every 21 days
[11] = 2x daily 1250 mg/m2 (total 2500 mg/m2), MCRC, Asia-Pac J Clin Oncol. 2011, 82-87
[12] = 2x daily 1000-1250 mg/m2, ACRC, Acta Oncologica, 2005, 44: 236-239
[13] = 7 patients 2x daily 1250 mg/m2, after toxicity dose diluted to 1000 mg/m2, ACRC, Anticancer Res. 26: 1669-1672 (2006)

Nc1nc2[nH]cc(CCc3ccc(C(=O)N[C@@H](CCC(=O)O)C(=O)O)cc3)c2c(=O)[nH]1 [pemetrexed]
beneficial effect of perifosine (improvement in combination with perifosine) in subjects receiving the chemotherapeutic agent [1]: not to occur

CCCCCOC(=O)Nc1nc(=O)n([C@@H]2O[C@H](C)[C@@H](O)[C@H]2O)cc1F [capecitabine]
PK parameters for capecitabine or its metabolites, Cycle 1 Day 1 vs Cycle 1 Day 11 [2]: no statistically significant differences
Median OS ([3]; 5-FU refractory): 6.6 mo. for 5-FU
Median TTP ([3]; 5-FU refractory): 10 weeks for 5-FU
median overall survival (OS) [3, 6]: 6.8 months
median time to progression (TTP) [3, 6]: 10 weeks
median overall survival (OS) [3, 7]: 6.6 months
median time to progression (TTP) [3, 7]: 11 weeks
Grade 3 and 4 adverse events: anemia ([3]; NCI CTCAE version 3.0): 0%
Grade 3 and 4 adverse events: hand/foot syndrome ([3]; NCI CTCAE version 3.0): 0%
patients who achieved stable disease (progression-free for 3 months or greater) [3, 8]: 3
patients with partial response [3, 8]: none
proportion of patients who achieved stable disease [3, 8]: 27%
patients who achieved stable disease (progression-free for 3 months or greater) [3, 9]: 6
patients with partial response [3, 9]: 1
proportion of patients who achieved stable disease [3, 9]: 40%
patients with complete response ([3]; after 12 weeks, evaluable metastatic colorectal cancer patients (20 combination, 15 capecitabine alone), RECIST 1.0): none
median overall survival (OS) [3, 10]: 10.9 months
median time to progression (TTP) [3, 10]: 11 weeks
Median OS ([3]; all patients): refractory; 10.9 mo.
Median TTP ([3]; all patients): refractory; 11 weeks
patients who discontinued treatment due to an adverse event ([3]; in vivo): 2
time of peak blood level after administration [4]: about 1.5 hours
effect of food on capecitabine absorption ([4]; in vivo): reduces both the rate and extent
elimination half-life ([4]; in vivo): about ¾
Median OS [5, 11]: 5.3 months
Median TTP [5, 11]: 2.3 months
Median OS [5, 12]: 6.1 mos.
Median TTP [5, 12]: 2.8 mos.
Median OS [5, 13]: 5.2 mos.
Median TTP [5, 13]: 4 mos.

CC(=O)O[C@H]1C(=O)[C@@]2(C)[C@H]([C@H](OC(=O)c3ccccc3)[C@]3(O)C[C@H](OC(=O)[C@H](O)[C@@H](NC(=O)c4ccccc4)c4ccccc4)C(C)=C1C3(C)C)[C@]1(OC(C)=O)CO[C@@H]1C[C@@H]2O [paclitaxel]
beneficial effect of perifosine (improvement in combination with perifosine) in subjects receiving the chemotherapeutic agent [1]: not to occur

CC(=O)O[C@@]12CO[C@@H]1C[C@H](O)[C@@]1(C)C(=O)[C@H](O)C3=C(C)[C@@H](OC(=O)[C@H](O)[C@@H](NC(=O)OC(C)(C)C)c4ccccc4)C[C@@](O)([C@@H](OC(=O)c4ccccc4)[C@H]21)C3(C)C [docetaxel]
beneficial effect of perifosine (improvement in combination with perifosine) in subjects receiving the chemotherapeutic agent [1]: not to occur

O=c1[nH]cc(F)c(=O)[nH]1 [5-fluorouracil]
time of peak blood level after administration [4]: 2 h

CCc1c2c(nc3ccc(OC(=O)N4CCC(N5CCCCC5)CC4)cc13)-c1cc3c(c(=O)n1C2)COC(=O)[C@]3(O)CC [irinotecan]
beneficial effect of perifosine (improvement in combination with perifosine) in subjects receiving the chemotherapeutic agent [1]: not to occur

COc1cccc2c1C(=O)c1c(O)c3c(c(O)c1C2=O)C[C@@](O)(C(=O)CO)C[C@@H]3O[C@H]1C[C@H](N)[C@H](O)[C@H](C)O1 [doxorubicin]
beneficial effect of perifosine (improvement in combination with perifosine) in subjects receiving the chemotherapeutic agent [1]: not to occur

Nc1ccn([C@@H]2O[C@H](CO)[C@@H](O)C2(F)F)c(=O)n1 [gemcitabine]
beneficial effect of perifosine (improvement in combination with perifosine) in subjects receiving the chemotherapeutic agent [1]: not to occur
